Measured values taken from ChEMBL document CHEMBL1201862, “PubChem BioAssay data set” (2004).
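Step 1: Grow cells in 96-well plates. Step 2: Expose to compound for 48 hours at 5 concentrations. Step 3: Interpolate endpoints linearly; if unreached, use highest concentration. GI50 marks 50% less growth.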 Calls of active or inactive are those of the source. Rule as the data show it: active = GI50 up to about 1.1 µM and inactive = higher.

Assays:
Test in all cases: DTP human tumour cell line panel, 48 h
HL-60 = system: HL-60
SK-MEL-5 = system: SK-MEL-5
COLO 205 = system: COLO 205
NCI-H226 = system: NCI-H226
RPMI-8226 = system: RPMI-8226
LOX IMVI = system: LOX IMVI
NCI-H522 = system: NCI-H522
SF-295 = system: SF-295
SN12C = system: SN12C
SK-OV-3 = system: SK-OV-3
HCT-116 = system: HCT-116
EKVX = system: EKVX
SNB-19 = system: SNB-19
U-251 = system: U-251
IGROV-1 = system: IGROV-1
OVCAR-5 = system: OVCAR-5
HCC 2998 = system: HCC 2998
KM12 = system: KM12
OVCAR-8 = system: OVCAR-8
SW-620 = system: SW-620

| SMILES | GI50 (HL-60) | GI50 (SK-MEL-5) | GI50 (COLO 205) | GI50 (NCI-H226) | GI50 (RPMI-8226) | GI50 (LOX IMVI) | GI50 (NCI-H522) | GI50 (SF-295) | GI50 (SN12C) | GI50 (SK-OV-3) | GI50 (HCT-116) | GI50 (EKVX) | GI50 (SNB-19) | GI50 (U-251) | GI50 (IGROV-1) | GI50 (OVCAR-5) | GI50 (HCC 2998) | GI50 (KM12) | GI50 (OVCAR-8) | GI50 (SW-620) |
| --- | --- | --- | --- | --- | --- | --- | --- | --- | --- | --- | --- | --- | --- | --- | --- | --- | --- | --- | --- | --- |
| c1ccc2cc3c(cc2c1)OP1(Oc2cccc4cccnc24)(O3)Oc2cc3ccccc3cc2O1 | 1.63 µM (inactive) | 3.17 µM (inactive) | 6.32 µM (inactive) | 9.89 µM (inactive) | 1.07 µM (active) | 3.72 µM (inactive) | 2.39 µM (inactive) | 4.67 µM (inactive) | 14.8 µM (inactive) | 34.7 µM (inactive) | 3.24 µM (inactive) | 3.37 µM (inactive) | 24.3 µM (inactive) | 6.85 µM (inactive) | 5.36 µM (inactive) | 4.43 µM (inactive) | 8.59 µM (inactive) | 5.31 µM (inactive) | 3.56 µM (inactive) | 2.81 µM (inactive) |
| C=CC1(NC(=O)c2ccccc2)CCC(C(C)(C)C)CC1 (stereo not given) | 14.4 µM (inactive) | 19.9 µM (inactive) | 21.7 µM (inactive) | 27.8 µM (inactive) | 20.9 µM (inactive) | 20.3 µM (inactive) | 30.8 µM (inactive) | 7.26 µM (inactive) | 35.2 µM (inactive) | 80.7 µM (inactive) | 22.8 µM (inactive) | > 47.1 µM (inactive) | 30.1 µM (inactive) | 22.5 µM (inactive) | 37.6 µM (inactive) | 28.1 µM (inactive) | 36.7 µM (inactive) | 35.2 µM (inactive) | 49.7 µM (inactive) | 35.3 µM (inactive) |
| CSCSCC(N)CO.Cc1[nH]c(=O)[nH]c(=O)c1/C=C/C(=O)O | > 625 µM (inactive) | > 625 µM (inactive) | > 625 µM (inactive) | > 625 µM (inactive) | > 625 µM (inactive) | > 625 µM (inactive) | > 625 µM (inactive) | 582 µM (inactive) | > 625 µM (inactive) | > 625 µM (inactive) | > 625 µM (inactive) | > 625 µM (inactive) | > 625 µM (inactive) | > 625 µM (inactive) | > 625 µM (inactive) | > 625 µM (inactive) | > 625 µM (inactive) | > 625 µM (inactive) | 492 µM (inactive) | > 625 µM (inactive) |
| CCC(/C=C/c1ccccc1)=N\Nc1ccc(Cl)c(Cl)c1 | 27.8 µM (inactive) | 13.8 µM (inactive) | 24.9 µM (inactive) | 21.5 µM (inactive) | 19.1 µM (inactive) | 22.8 µM (inactive) | 18.5 µM (inactive) | 34.7 µM (inactive) | 24.4 µM (inactive) | 27.4 µM (inactive) | 23.7 µM (inactive) | 30.3 µM (inactive) | 52.1 µM (inactive) | 3.22 µM (inactive) | 5.14 µM (inactive) | 66.1 µM (inactive) | 25.9 µM (inactive) | 29.3 µM (inactive) | 16 µM (inactive) | 33 µM (inactive) |
| COC(=O)/C=C1\CCC(C)(C(=O)NS(=O)(=O)c2ccc(C)cc2)C1(C)C (stereo not given) | > 100 µM (inactive) | > 100 µM (inactive) | > 100 µM (inactive) | > 100 µM (inactive) | > 100 µM (inactive) | > 100 µM (inactive) | > 100 µM (inactive) | > 100 µM (inactive) | > 100 µM (inactive) | > 100 µM (inactive) | > 100 µM (inactive) | > 100 µM (inactive) | > 100 µM (inactive) | > 100 µM (inactive) | > 100 µM (inactive) | > 100 µM (inactive) | > 100 µM (inactive) | > 100 µM (inactive) | > 100 µM (inactive) | > 100 µM (inactive) |
| O=NN(CCCl)C(=O)NCCCl [CARMUSTINE] | 16.7 µM (inactive) | 78.7 µM (inactive) | 72.3 µM (inactive) | 105 µM (inactive) | 51.3 µM (inactive) | 38 µM (inactive) | 42.9 µM (inactive) | 44.5 µM (inactive) | 75.9 µM (inactive) | 115 µM (inactive) | 73.6 µM (inactive) | 120 µM (inactive) | 68.4 µM (inactive) | 52.1 µM (inactive) | 70.6 µM (inactive) | 105 µM (inactive) | 93.8 µM (inactive) | 88.9 µM (inactive) | 77.8 µM (inactive) | 52.2 µM (inactive) |
